Test results reported in PubChem BioAssay (NCI).
Where “and” joins values, the source holds several entries; their conditions need not be identical. Equal values may be shown once.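 All cell lines were grown in 96-well plates and treated with compound for 48 hours. Abbreviation: GI50, concentration required for 50% inhibition of growth. Definition used: TGI = concentration required for complete inhibition of growth.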

Columns and labels:
Assay in all cases: DTP human tumour cell line panel, 48 h
[1] = tested on: SK-MEL-28 melanoma
[2] = tested on: CCRF-CEM leukemia
[3] = tested on: SK-OV-3 ovarian
[4] = tested on: T-47D breast
[5] = tested on: MALME-3M melanoma
[6] = tested on: A498 renal
[7] = tested on: SR leukemia
[8] = tested on: HCT-15 colon
[9] = tested on: RXF 393 renal
[10] = tested on: HL-60(TB) leukemia

| Structure (SMILES) | TGI [1] | TGI [2] [µM] | TGI [3] [µM] | TGI [4] | TGI [5] | TGI [6] [µM] | TGI [7] [µM] | TGI [8] | TGI [9] [µM] | GI50 [3] [nM] | GI50 [10] [nM] | TGI [10] | GI50 [6] [nM] | GI50 [8] [nM] | GI50 [1] [nM] | GI50 [2] [nM] | GI50 [4] [nM] | GI50 [5] [nM] | GI50 [7] [nM] | GI50 [9] [nM] |
| --- | --- | --- | --- | --- | --- | --- | --- | --- | --- | --- | --- | --- | --- | --- | --- | --- | --- | --- | --- | --- |
| CC[C@@]1(O)C(=O)OCc2c1cc1n(c2=O)Cc2c-1nc1ccccc1c2/C=N\NC(=O)C(N)Cc1cnc[nH]1 (stereo partly specified) | > 100 µM | 15 | > 100 | > 100 µM | > 87100 nM | 4.09 | 0.387 | > 100 µM | 9.59 |  |  |  |  |  |  |  |  |  |  |  |
| CCOC(=O)c1c(C)[nH]c(/C=C2\N=C(c3ccc[nH]3)C=C2OC)c1C |  |  | 3.71 |  |  | 5.7 |  | 1.07 µM |  | 413 | 23.2 | 442 nM | 1870 | < 10 |  |  |  |  |  |  |
| O=C1C=C(N2CC2)C(=O)C=C1N1CC1 | 0.68 µM and 0.654 µM | 0.456 | 2.19 | 0.582 µM and 2.85 µM | 234 nM and 238 nM | 0.158 | 0.302 | 0.231 µM and 1.21 µM |  |  | 2.33 | 510 nM and 197 nM |  | 20.7 | 187 | 5.68 | 51.6 | 49.8 | 26.6 | 2.46 |
| COC(=O)c1cc2c3c(cc(O)c2[nH]1)N(C(=O)C1Cc2cc(OC)c(OC)c(OC)c2N1)CC3CCl (stereo unspecified) | < 0.01 µM | > 100 | < 0.01 | < 0.01 µM |  | < 0.01 | > 100 | 10.4 µM |  | < 10 | < 10 | 10.2 nM | < 10 | < 10 | < 10 | < 10 | < 10 |  | < 10 |  |
| COc1cc(/C=C2\CN(S(=O)(=O)c3ccc(C)cc3)C/C(=C\c3cc(CN4CCCCC4)c(O)c(OC)c3)C2=O)cc(CN2CCCCC2)c1O | 3.13 µM | 1.13 | 3.6 |  |  |  |  |  |  | 1910 | 1880 | 4340 nM |  |  | 1610 | 307 |  |  |  |  |
| COc1ccc(Cl)cc1NC(=O)c1c(NC(=O)C(F)(F)C(F)(F)F)sc2c1CCCCC2 | > 100 µM | > 100 | 6.89 | 5.49 µM | 5630 nM | 2.06 | > 100 |  | 5.28 | 2180 | 2130 | 6630 nM | 312 |  | 1900 | 769 | 1260 | 1580 | 1230 | 1730 |
| Oc1ccc2ccccc2c1N=Nc1ccccn1 | > 100 µM | 22.8 | > 100 | > 28.4 µM | 10600 nM | 20 | 10.4 | > 100 µM | > 100 | 1140 | 469 | 3230 nM | 2390 | 497 | 2800 | 312 | 681 | 2070 | 356 | 3440 |
| COc1ccc(CCCC(=O)O)c(C)c1 | > 100 µM | > 100 |  | > 100 µM | > 100000 nM | 52.6 | > 100 | > 100 µM | > 100 |  |  | > 100000 nM |  |  |  |  |  |  |  |  |
| COc1cc2cc(C(=O)N3CC(CCl)c4c3cc(N(C)C)c3ccccc43)[nH]c2c(OC)c1OC (stereo unspecified) |  |  | 0.0395 |  | 97.6 nM | 0.0174 | < 0.01 | > 41.4 µM | 0.0334 |  |  |  |  |  |  |  |  |  |  |  |
